Structures can show the parent of a compound that is named as a salt. Where two headings read alike, the source gives them in different places.
Key:
[1] = molecular target: T1, TYK2 JH2 (Homo sapiens, UniProt P29597); assay: TYK2 JH2 binding assay (KINOMEscan KdELECT competitive binding); settings: TYK2 JH2 domain
T1 construct: purchased DiscoverX (KINOMEscan KdELECT service); host or cells: E. coli BL21-derived (T7 phage display) or HEK-293
Procedure, shortened: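 Beads carrying a biotinylated ligand were mixed with tagged JH2 kinase and compound (11 points, 3-fold steps, 0.9% DMSO) and shaken 1 h at room temperature. After washing, kinase was released with 0.5 μM untagged ligand over 30 min and measured by qPCR to derive Kd.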

[2] = test system: JAK1/TYK2 pSTAT5 (Tyr694/699) in THP-1 cell line; assay: IFNa-stimulated JAK1/TYK2 pSTAT5 (Tyr694/699) inhibition cellular assay, AlphaLISA; type: cell-based; settings: Homo sapiens, THP-1 cells, IFNa-stimulated, AlphaLISA (Assay B)
Procedure, shortened: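 Compound dilutions were dispensed first, and HBSS-suspended THP-1 cells were added on top (final top concentration 10000 nM, 6-fold series). After 1 h at 37 °C, IFNa (100 ng/mL as added) was applied for 30 min. Cells were then lysed and pSTAT5 was quantified by AlphaLISA.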

[3] = KINOMEscan KdELECT (Assay A), read-out: Biochemical TYK2_DiscoverX_JH2_BND_Kd
[4] = read-out: Cellular_THP1_IFNa-pSTATS_TYK2
[5] = KINOMEscan KdELECT (Assay A), read-out: Biochemical TYK2_JH2_Kd
[6] = read-out: Cellular THP1_IFNa-pSTATS_IC50
[7] = DiscoverX KINOMEscan KdELECT (Assay A), read-out: Biochemical TYK2_DiscoverX_JH2_BND_Kd

T1 sequence (P29597 589-875 limits assumed): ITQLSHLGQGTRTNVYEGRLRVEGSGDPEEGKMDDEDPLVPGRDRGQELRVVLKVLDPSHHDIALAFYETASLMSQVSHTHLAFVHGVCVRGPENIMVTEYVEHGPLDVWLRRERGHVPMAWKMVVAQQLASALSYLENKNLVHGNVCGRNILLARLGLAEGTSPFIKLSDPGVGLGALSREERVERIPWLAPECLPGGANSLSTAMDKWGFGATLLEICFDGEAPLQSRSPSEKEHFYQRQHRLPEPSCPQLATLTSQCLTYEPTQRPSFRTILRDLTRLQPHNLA

Row | Structure (SMILES) | Kd [1, 3] | IC50 [2, 4] | Kd [1, 5] | IC50 [2, 6] | Kd [1, 7]
1 | CNc1ncc(-c2nc3cc(N4CC[C@H](F)C4)ccc3o2)c2cc(NC(=O)C3CC3)ncc12 (single isomer, unassigned) [Example 945] | ≤ 100 nM | ≤ 500 nM | – | – | –
2 | CNc1ncc(-c2ccc3c(c2)OCCO3)c2cc(NC(=O)C3CC3)ncc12 [Example 108, N-(5-(2,3-dihydrobenzo[b][1,4]dioxin-6-yl)-8-(methylamino)-2,7-naphthyridin-3-yl)cyclopropanecarboxamide] | – | – | ≤ 100 nM | > 500 nM | –
3 | CNc1ncc(-c2nc3cc(O[C@H]4C[C@H](OC)C4)ccc3o2)c2cc(NC(=O)C3CC3)ncc12 [Example 199, N-(5-(5-((1r,3r)-3-methoxycyclobutoxy)benzo[d]oxazol-2-yl)-8-(methylamino)-2,7-naphthyridin-3-yl)cyclopropanecarboxamide] | – | ≤ 500 nM | – | – | ≤ 100 nM
4 | CNc1ncc(C#Cc2ccc3nnn(C)c3c2)c2cc(NC(=O)C3CC3)ncc12 [Example 595, N-(5-((1-methyl-1H-benzo[d][1,2,3]triazol-6-yl)ethynyl)-8-(methylamino)-2,7-naphthyridin-3-yl)cyclopropanecarboxamide] | ≤ 100 nM | ≤ 500 nM | – | – | –
5 | CNc1ncc(/C=C/c2ccc(N3C[C@@H](C)O[C@@H](C)C3)cc2)c2cc(NC(=O)C3CC3)ncc12 [Example 786, N-(5-((E)-4-((2R,6S)-2,6-dimethylmorpholino)styryl)-8-(methylamino)-2,7-naphthyridin-3-yl)cyclopropanecarboxamide] | ≤ 100 nM | ≤ 500 nM | – | – | –
6 | CNc1ncc(C#Cc2ccc(OC(F)F)cn2)c2cc(NC(=O)C3CC3)ncc12 [Example 645, N-(5-((5-(difluoromethoxy)pyridin-2-yl)ethynyl)-8-(methylamino)-2,7-naphthyridin-3-yl)cyclopropanecarboxamide] | ≤ 100 nM | ≤ 500 nM | – | – | –
7 | CNc1ncc(-c2nc3ccc(N4CC(OC)C4)cn3n2)c2cc(NC(=O)C3CC3)ncc12 [Example 476, N-(5-(6-(3-methoxyazetidin-1-yl)-[1,2,4]triazolo[1,5-a]pyridin-2-yl)-8-(methylamino)-2,7-naphthyridin-3-yl)cyclopropanecarboxamide] | – | ≤ 500 nM | – | – | ≤ 100 nM
8 | CNc1ncc(-c2nc3ccc(N4CCOCC4)cn3n2)c2cc(NC(=O)[C@@H]3CC3(F)F)ncc12 (single isomer, unassigned) [Example 994] | ≤ 100 nM | ≤ 500 nM | – | – | –
9 | CNc1ncc(-c2ccc(-c3cnnn3C)cc2)c2cc(NC(=O)C3CC3)ncc12 [Example 870, N-(5-(4-(1-methyl-1H-1,2,3-triazol-5-yl)phenyl)-8-(methylamino)-2,7-naphthyridin-3-yl)cyclopropanecarboxamide] | ≤ 100 nM | ≤ 500 nM | – | – | –
10 | C=Cc1cnc(NC)c2cnc(NC(=O)C3CC3)cc12 [Example 71, N-(8-(methylamino)-5-vinyl-2,7-naphthyridin-3-yl)cyclopropanecarboxamide] | – | – | ≤ 100 nM | > 500 nM | –
11 | CNc1ncc(-c2nc3ccc(N4CCOCC4)cn3n2)c2cc(NC(=O)[C@@H]3CC34CC4)ncc12 (single isomer, unassigned) [Example 587, formate] | – | ≤ 500 nM | – | – | ≤ 100 nM
12 | CNc1ncc(C#Cc2ncc(OC)cc2CF)c2cc(NC(=O)C3CC3)ncc12 [Example 963, N-[5-[2-[3-(fluoromethyl)-5-methoxy-2-pyridyl]ethynyl]-8-(methylamino)-2,7-naphthyridin-3-yl]cyclopropanecarboxamide] | ≤ 100 nM | ≤ 500 nM | – | – | –
13 | CNc1ncc(-c2cccc(F)c2)c2cc(NC(=O)C3CC3)ncc12 [Example 116, N-(5-(3-fluorophenyl)-8-(methylamino)-2,7-naphthyridin-3-yl)cyclopropanecarboxamide] | – | – | ≤ 100 nM | > 500 nM | –
14 | CNc1ncc(C#Cc2ccc(OCC(C)(C)F)cc2)c2cc(NC(=O)C3CC3)ncc12 [Example 731, N-(5-((4-(2-fluoro-2-methylpropoxy)phenyl)ethynyl)-8-(methylamino)-2,7-naphthyridin-3-yl)cyclopropanecarboxamide] | ≤ 100 nM | > 500 nM | – | – | –
15 | CNc1ncc(-c2cn[nH]c2)c2cc(NC(=O)C3CC3)ncc12 [Example 24, N-(8-(methylamino)-5-(1H-pyrazol-4-yl)-2,7-naphthyridin-3-yl)cyclopropanecarboxamide] | – | – | ≤ 100 nM | > 500 nM | –
16 | CNc1ncc(-c2cc(C)ns2)c2cc(NC(=O)C3CC3)ncc12 [Example 138, N-(8-(methylamino)-5-(3-methylisothiazol-5-yl)-2,7-naphthyridin-3-yl)cyclopropanecarboxamide] | – | – | ≤ 100 nM | > 500 nM | –
17 | CNc1ncc(-c2nc3cc(-n4c(=O)ccn4C)ccc3o2)c2cc(NC(=O)C3CC3)ncc12 [Example 446, N-(5-(5-(2-methyl-5-oxo-2,5-dihydro-1H-pyrazol-1-yl)benzo[d]oxazol-2-yl)-8-(methylamino)-2,7-naphthyridin-3-yl)cyclopropanecarboxamide] | – | > 500 nM | – | – | ≤ 100 nM
18 | CNc1ncc(C#Cc2ccnn2C)c2cc(NC(=O)C3CC3)ncc12 [Example 804, N-(5-((1-methyl-1H-pyrazol-5-yl)ethynyl)-8-(methylamino)-2,7-naphthyridin-3-yl)cyclopropanecarboxamide] | ≤ 100 nM | ≤ 500 nM | – | – | –
19 | CNc1ncc(-c2nc3cc(N4CCOCC4)ccc3o2)c2cc(Nc3cc(C)nc(C)n3)ncc12 [Example 449, N^6-(2,6-dimethylpyrimidin-4-yl)-N^1-methyl-4-(5-morpholinobenzo[d]oxazol-2-yl)-2,7-naphthyridine-1,6-diamine] | – | ≤ 500 nM | – | – | ≤ 100 nM
20 | CNc1ncc(/C=C2\CCOC2)c2cc(NC(=O)C3CC3)ncc12 [Example 79, (E)-N-(5-((dihydrofuran-3(2H)-ylidene)methyl)-8-(methylamino)-2,7-naphthyridin-3-yl)cyclopropanecarboxamide] | – | – | ≤ 100 nM | > 500 nM | –
21 | CNc1ncc(-c2nc3cc(OC)ccc3o2)c2cc(NC(=O)[C@H]3C[C@@H]3F)ncc12 [Example 389, (1R,2S)-2-fluoro-N-(5-(5-methoxybenzo[d]oxazol-2-yl)-8-(methylamino)-2,7-naphthyridin-3-yl)cyclopropane-1-carboxamide] | – | ≤ 500 nM | – | – | ≤ 100 nM
22 | CNc1ncc(C#Cc2ccc(C#N)cn2)c2cc(NC(=O)C3CC3)ncc12 [Example 661, N-(5-((5-cyanopyridin-2-yl)ethynyl)-8-(methylamino)-2,7-naphthyridin-3-yl)cyclopropanecarboxamide] | ≤ 100 nM | ≤ 500 nM | – | – | –
23 | CNc1ncc(-c2ccn(Cc3ncn(C)n3)n2)c2cc(NC(=O)C3CC3)ncc12 [Example 150, N-(5-(1-((1-methyl-1H-1,2,4-triazol-3-yl)methyl)-1H-pyrazol-3-yl)-8-(methylamino)-2,7-naphthyridin-3-yl)cyclopropanecarboxamide] | – | – | ≤ 100 nM | > 500 nM | –
24 | CNc1ncc(C#Cc2cc3c(F)cccn3n2)c2cc(NC(=O)C3CC3)ncc12 [Example 721, N-(5-((4-fluoropyrazolo[1,5-a]pyridin-2-yl)ethynyl)-8-(methylamino)-2,7-naphthyridin-3-yl)cyclopropanecarboxamide] | ≤ 100 nM | ≤ 500 nM | – | – | –
25 | CNc1ncc(-c2nc3cc(O[C@@H](C)COC)ccc3o2)c2cc(NC(=O)C3CC3)ncc12 [Example 350, (S)—N-(5-(5-((1-methoxypropan-2-yl)oxy)benzo[d]oxazol-2-yl)-8-(methylamino)-2,7-naphthyridin-3-yl)cyclopropanecarboxamide] | – | ≤ 500 nM | – | – | ≤ 100 nM
26 | CNc1ncc(-c2nc3ccc(N4CCO[C@@H](C)C4)cn3n2)c2cc(NC(=O)[C@H]3C[C@H]3C)ncc12 [Example 539, (1S,2R)-2-methyl-N-(8-(methylamino)-5-(6-((S)-2-methylmorpholino)-[1,2,4]triazolo[1,5-a]pyridin-2-yl)-2,7-naphthyridin-3-yl)cyclopropane-1-carboxamide] | – | ≤ 500 nM | – | – | ≤ 100 nM
27 | CNc1ncc(C#Cc2ccc(OC)cn2)c2c(Cl)c(NC(=O)C3CC3)ncc12 [Example 889, N-(4-chloro-5-((5-methoxypyridin-2-yl)ethynyl)-8-(methylamino)-2,7-naphthyridin-3-yl)cyclopropanecarboxamide] | ≤ 100 nM | > 500 nM | – | – | –
28 | CNc1ncc(C#Cc2ccc3nc4n(c3c2)CCOC4)c2cc(NC(=O)C3(F)CC3)ncc12 [Example 758, N-(5-((3,4-dihydro-1H-benzo[4,5]imidazo[2,1-c][1,4]oxazin-7-yl)ethynyl)-8-(methylamino)-2,7-naphthyridin-3-yl)-1-fluorocyclopropane-1-carboxamide] | ≤ 100 nM | ≤ 500 nM | – | – | –
29 | CNc1ncc(-c2nc3cc(OCCS(C)(=O)=O)ccc3o2)c2cc(NC(=O)C3CC3)ncc12 [Example 354, N-(8-(methylamino)-5-(5-(2-(methylsulfonyl)ethoxy)benzo[d]oxazol-2-yl)-2,7-naphthyridin-3-yl)cyclopropanecarboxamide] | – | ≤ 500 nM | – | – | ≤ 100 nM

Reference: US20240025906A1 (NEURON23, INC., priority 2022, published 2024)
